The values that follow come from patent publication US5484773A, “Treatment of antibiotic associated diarrhea” (priority 1994, dated 1996).

One experiment has as its system CDAD or PMC. To be noted: cited from earlier work; for patients in whom diarrhea returns after discontinuing antibiotic treatment: after oral Metronidazole or Vancomycin therapy, ref. [15]; for therapy effective, share of patients who suffer from CDAD or PMC: oral Metronidazole or Vancomycin with removal of offending drug and fluid replacement.
Experiment [1] addresses T1, C. difficile toxin A (Clostridioides difficile, UniProt P16154).
T1 construct: Toxin A was isolated from a toxin producing strain of C. difficile; made in house; host or cells: Clostridium difficile ATCC 43255 (VPI strain 10463), native toxin from culture supernatant, not recombinant
Kind of experiment: Screening: neutralization of purified toxin A hemagglutination activity by SYNSORBs (Example 1, FIG. 1). The class given is biochemical, Clostridium difficile. As for the experimental part:
The amount of toxin A adsorption to SYNSORB was determined by assaying supernatants for reduction of endpoint titers in hemagglutination assays relative to controls without any added SYNSORB. […] SYNSORBs 2, 5, 104, 105, and 134 neutralized about 50% of toxin A activity.
Toxin A was isolated from a toxin producing strain of C. difficile (ATCC 43255, VPI strain 10463) using slight modifications of the method of Sullivan et al..
C. difficile was grown in 2.3 liter of brain heart infusion broth (BHIB) in anaerobic jars for 72 hours at 37° C. The crude culture was centrifuged at 5,000× g for 20 minutes to sediment the bacteria. The resulting culture supernatant was carefully removed and solid ammonium sulfate (897 g) was added to make 60% saturation. […]
Fresh rabbit erythrocytes were washed once in phosphate buffered saline (PBS) and resuspended at a concentration of 4% (v/v) in cold PBS. […] After incubating the plate for 4 hours at 4° C., the hemagglutination titer was visually assessed. […]
After incubation, the SYNSORB was allowed to settle to the bottom of the tubes and the supernatants were carefully removed. Serial 2-fold dilutions of the supernatants were prepared and the hemagglutination endpoint determined as described above.
The extent of reduction in the endpoint in the presence of SYNSORB was determined by comparing the endpoint with that of controls in which SYNSORB was not added. […]

Experiment [2] concerns the target T1, C. difficile toxin A. Kind of experiment: Determination of optimal binding conditions (amount and incubation time) for toxin A neutralization, hemagglutination (Example 2, FIGS. 2 and 3). The class given is biochemical, Clostridium difficile. To be noted: about 20 mg SYNSORB per 1 ml toxin A solution (20 mg/ml); 2 hours, 37° C.; FIG. 2. As for the experimental part:
(§1) Fresh rabbit erythrocytes were washed once in phosphate buffered saline (PBS) and resuspended at a concentration of 4% (v/v) in cold PBS. Serial 2-fold dilutions (50 μl) of toxin A-containing solutions were made in cold PBS in U-shaped microtiter wells. An equal volume (50 μl) of rabbit erythrocytes was then added to each well and the microtiter plate was mixed gently. After incubating the plate for 4 hours at 4° C., the hemagglutination titer was visually assessed.
The amount of SYNSORBS 52 and 90 required for maximal toxin A neutralization was determined by adding 1 ml of a purified toxin A solution to pre-weighed amounts of each SYNSORB in 1.5 ml microcentrifuge tubes. SYNSORB 52 samples were tested using 12.8, 21.6 and 43.3 mg amounts of SYNSORB 52; SYNSORB 90 samples were tested using 12.9, 19.2 and 42.3 mg amounts of SYNSORB 90. Samples were incubated for 2 hours at 37° C. on an end-over-end rotator. […]
The amount of neutralization in each sample was determined by comparing the endpoint titers of hemagglutination assays from samples with and without SYNSORB.
The length of incubation time required for optimal neutralization was determined by incubating microcentrifuge tubes containing 1 ml of purified toxin A solution and 20 mg of either SYNSORB 52 or SYNSORB 90. […]
The degree of neutralization at each incubation period was determined as described above.

Experiment [3] has as its target T1, C. difficile toxin A. The experiment in a line: Determination of binding affinity of SYNSORBs to toxin A, hemagglutination titer reduction (Example 4, FIG. 4). To be noted: rabbit erythrocytes. Set-up: species or system Clostridium difficile. As for the experimental part:
For the purposes of this invention, oligosaccharide sequences attached to solid supports which bind toxin A means those compositions which reduce endpoint titers from hemagglutination assays by at least 50%.
as §1
To assess the binding affinity of various SYNSORBs to toxin A, each SYNSORB was combined with toxin A as described in Example 1. Endpoint titers from hemagglutination assays using rabbit erythocytes were determined as described previously. […] Those SYNSORBs which reduced titers by greater than 50% were deemed to bind toxin A.

T1 sequence (P16154 whole entry, looked up): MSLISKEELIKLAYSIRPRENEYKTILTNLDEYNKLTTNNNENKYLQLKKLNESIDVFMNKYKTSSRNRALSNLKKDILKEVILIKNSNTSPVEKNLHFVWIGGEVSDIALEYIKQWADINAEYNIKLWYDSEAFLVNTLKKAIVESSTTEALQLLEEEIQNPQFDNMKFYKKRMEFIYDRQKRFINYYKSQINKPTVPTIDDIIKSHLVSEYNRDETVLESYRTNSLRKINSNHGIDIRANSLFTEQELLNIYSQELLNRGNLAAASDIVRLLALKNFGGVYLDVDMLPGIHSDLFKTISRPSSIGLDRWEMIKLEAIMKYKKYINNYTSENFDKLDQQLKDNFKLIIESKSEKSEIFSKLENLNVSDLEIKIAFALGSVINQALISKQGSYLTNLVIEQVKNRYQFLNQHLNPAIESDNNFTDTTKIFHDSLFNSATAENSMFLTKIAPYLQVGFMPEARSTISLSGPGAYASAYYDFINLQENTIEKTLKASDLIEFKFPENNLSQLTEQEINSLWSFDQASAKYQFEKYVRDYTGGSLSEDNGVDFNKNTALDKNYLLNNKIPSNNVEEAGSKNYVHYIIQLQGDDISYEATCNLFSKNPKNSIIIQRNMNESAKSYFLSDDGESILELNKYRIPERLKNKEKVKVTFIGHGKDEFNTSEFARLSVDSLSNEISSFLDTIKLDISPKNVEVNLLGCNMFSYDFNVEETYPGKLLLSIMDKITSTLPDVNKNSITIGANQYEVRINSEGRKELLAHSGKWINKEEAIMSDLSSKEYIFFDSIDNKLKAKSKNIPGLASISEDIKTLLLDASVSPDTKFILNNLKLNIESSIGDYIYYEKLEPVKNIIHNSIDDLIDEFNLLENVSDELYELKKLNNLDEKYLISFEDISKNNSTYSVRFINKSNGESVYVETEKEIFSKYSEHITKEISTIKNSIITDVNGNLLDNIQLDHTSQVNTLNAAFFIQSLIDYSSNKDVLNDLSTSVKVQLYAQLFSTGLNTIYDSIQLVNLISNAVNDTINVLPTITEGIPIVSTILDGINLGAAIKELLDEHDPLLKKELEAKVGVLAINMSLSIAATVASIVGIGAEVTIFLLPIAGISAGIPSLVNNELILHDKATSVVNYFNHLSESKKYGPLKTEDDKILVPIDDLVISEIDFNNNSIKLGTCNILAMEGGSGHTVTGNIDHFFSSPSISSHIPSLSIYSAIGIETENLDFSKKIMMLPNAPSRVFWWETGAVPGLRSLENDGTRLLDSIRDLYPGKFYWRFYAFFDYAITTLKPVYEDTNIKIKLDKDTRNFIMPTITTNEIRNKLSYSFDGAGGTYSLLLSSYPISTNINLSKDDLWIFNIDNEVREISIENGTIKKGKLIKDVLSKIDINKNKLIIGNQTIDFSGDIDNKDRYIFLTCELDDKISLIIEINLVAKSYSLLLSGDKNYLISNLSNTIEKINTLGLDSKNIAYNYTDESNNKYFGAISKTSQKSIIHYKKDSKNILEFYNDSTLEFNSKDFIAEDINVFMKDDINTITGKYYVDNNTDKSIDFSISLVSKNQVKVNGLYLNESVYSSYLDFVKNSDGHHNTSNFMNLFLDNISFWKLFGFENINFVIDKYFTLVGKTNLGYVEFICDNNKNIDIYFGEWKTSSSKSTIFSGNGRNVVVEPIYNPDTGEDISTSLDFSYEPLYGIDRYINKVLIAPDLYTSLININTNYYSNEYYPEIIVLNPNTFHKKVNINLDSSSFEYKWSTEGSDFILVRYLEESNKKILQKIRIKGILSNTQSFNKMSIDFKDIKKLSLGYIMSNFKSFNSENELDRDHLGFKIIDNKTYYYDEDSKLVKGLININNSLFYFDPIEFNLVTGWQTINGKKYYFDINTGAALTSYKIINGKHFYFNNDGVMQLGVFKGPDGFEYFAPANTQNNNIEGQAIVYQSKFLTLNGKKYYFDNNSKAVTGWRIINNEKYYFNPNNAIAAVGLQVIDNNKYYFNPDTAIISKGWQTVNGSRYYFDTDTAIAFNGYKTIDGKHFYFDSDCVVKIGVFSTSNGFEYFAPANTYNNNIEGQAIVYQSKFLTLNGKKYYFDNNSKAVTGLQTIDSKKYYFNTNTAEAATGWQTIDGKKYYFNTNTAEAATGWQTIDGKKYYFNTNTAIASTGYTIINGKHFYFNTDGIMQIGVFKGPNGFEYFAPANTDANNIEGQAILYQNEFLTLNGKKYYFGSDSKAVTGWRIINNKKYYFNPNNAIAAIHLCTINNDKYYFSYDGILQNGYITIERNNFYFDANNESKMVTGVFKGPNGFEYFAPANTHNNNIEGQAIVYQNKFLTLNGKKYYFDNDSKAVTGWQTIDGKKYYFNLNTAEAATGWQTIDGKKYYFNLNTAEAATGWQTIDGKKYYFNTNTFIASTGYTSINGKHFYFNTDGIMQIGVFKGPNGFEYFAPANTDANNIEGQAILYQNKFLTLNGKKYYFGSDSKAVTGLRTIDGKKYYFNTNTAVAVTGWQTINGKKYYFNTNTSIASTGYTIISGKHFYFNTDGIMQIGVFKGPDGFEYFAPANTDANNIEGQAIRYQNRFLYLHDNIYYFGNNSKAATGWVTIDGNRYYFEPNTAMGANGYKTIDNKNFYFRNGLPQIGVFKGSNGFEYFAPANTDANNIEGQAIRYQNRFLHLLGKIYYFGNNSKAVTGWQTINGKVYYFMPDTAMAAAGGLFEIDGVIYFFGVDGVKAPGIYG

On to `Cc1ncc([N+](=O)[O-])n1CCO` [Metronidazole], for which, in the experiment with CDAD or PMC, the “patients in whom diarrhea returns after discontinuing antibiotic treatment” value was “about 20%” and the “therapy effective, share of patients who suffer from CDAD or PMC” value was “about 80%”.
In the case of `CN[C@H](CC(C)C)C(=O)N[C@H]1C(=O)N[C@@H](CC(N)=O)C(=O)N[C@H]2C(=O)N[C@H]3C(=O)N[C@H](C(=O)N[C@H](C(=O)O)c4cc(O)cc(O)c4-c4cc3ccc4O)[C@H](O)c3ccc(c(Cl)c3)Oc3cc2cc(c3O[C@@H]2O[C@H](CO)[C@@H](O)[C@H](O)[C@H]2O[C@H]2C[C@](C)(N)[C@H](O)[C@H](C)O2)Oc2ccc(cc2Cl)[C@H]1O` [Vancomycin], in the experiment with CDAD or PMC, the “patients in whom diarrhea returns after discontinuing antibiotic treatment” value is recorded as “about 20%” and the “therapy effective, share of patients who suffer from CDAD or PMC” value is on record as “about 80%”.
For the compound αGal(1-3)βGal(1-3)βGlcNAc [SYNSORB 134], the “removal/neutralization of toxin A activity (reduction of endpoint titers in hemagglutination assays)” value at C. difficile toxin A [1] (purified toxin A 0.5 ml, 10.1 to 17.5 mg SYNSORB, room temperature, 2 hours, rabbit erythrocytes) was “about 50%”.
As for αGal(1-3)βGal(1-4)βGlc [SYNSORB 90], the “neutralization of toxin A activity (in words)” value on C. difficile toxin A [1] (purified toxin A, hemagglutination vs controls without SYNSORB) is “as effective at neutralizing toxin A activity”. Besides, on C. difficile toxin A [2], the “neutralization of toxin A activity” value was “more than 75%”.
On to αGal(1-4)βGal(1-4)βGlc [SYNSORB 68], for which, on C. difficile toxin A [3], the “binding to toxin A (criterion: titer reduced by greater than 50%)” value is reported as “bind toxin A”.
αNeuAc(2-6)βGal(1-4)βGlc [SYNSORB 89]: the “binding to toxin A (criterion: titer reduced by greater than 50%)” value on C. difficile toxin A [3] was “appear not to bind toxin A”.
On the same count and under the same terms, under βGal(1-4)βGlcNAc [SYNSORB 34] stands “appear not to bind toxin A”.
